# Experiments:
# MCII cells = assay: MCII Mast Cell Toxicity Assay (XTT); assay type: cell-based, mouse; details: sensitized MCII cells, 4-12 hours, 37° C., read-out: MCII Mast Cell Toxicity IC50
# Source text: MCII Mast Cell Toxicity Assay
# This toxicity assay is run in parallel with the MCII mast cell LTC4 assay and serves as an indicator of compound effects on the viability and metabolic activity of the MCII cells. This "toxicity" assay is based on the ability of dehydrogenase enzymes present in viable metabolically active cells to bioreduce the tetrazolium sale XTT yielding a colored, water soluble formazan product. (see, Roehm et al.) "An improved colorimetric assay for cell proliferation and viability utilizing the tetrazolium salt XTT. J. Immunol. Methods 142:257-65 (1991).
# A duplicate polystyrene 96-well tissue culture plate (Costar) is set up with sensitized MCII cells, EM95 ascites, media and dilutions of the test compound as described above. The complete media is supplemented with concanavalin A induced culture supernatants from the mouse helper T cell clone D10.G4, as a source of mast cell growth factors.
# Wells of the toxicity assay plate are pulsed with 25 μl XTT (Sigma) plus phenazine methosulfate (Aldrich) giving a final concentration of 0.2 mg/ml XTT and 25 μM phenazine methosulfate. The plates are incubated at 37° C. in 10% CO2 for 4-12 hours and then production of the XTT formazan product determined by measuring the optical density of the wells at a wavelength of 450 nm. The positive control on each plate is stimulated MCII cells with dimethyl sulfoxide vehicle alone and the negative control is the same reaction mixture without cells. The background negative control value is subtracted from experimental and positive control values and the data are reported as percent of positive control.
# [1] = test system: TxB2 production in plasma-depleted blood; assay: Inhibition of Eicosanoid Production by Plasma-Depleted Blood: TxB2; assay type: cell-based; details: Homo sapiens, read-out: Plasma DPLTD Blood TxB2 IC50
# Procedure: Inhibition of Eicosanoid Production by Plasma-Depleted Blood
# Compounds are evaluated for their ability to inhibit production of leukotriene B4 (LTB4) and thromboxane B2 (TxB2) upon stimulation of human plasma-depleted blood with formyl-methionyl-leucyl-phenylalanine (FMLP) and thrombin. LTB4 is produced by neutrophils and TxB2 by platelets stimulated at their respective receptors with FMLP and thrombin. The assay is carried out in 1 ml deep well polypropylene 96-well plates (Beckman). For the test, ten ml of blood is collected in EDTA at a final concentration of 1.5 mg/ml. Then, 40 ml glucose phosphate buffer containing 0.1% gelatin is added and the suspension centrifuged at 900 g for 10 minutes at room temperature. The supernatant is discarded and the cells washed once with 50 ml buffer before resuspending them in 50 ml Krebs-Ringers-Henseleit Buffer containing 0.1% gelatin, 1 mM CaCl2, 1.1 mM MgCl2 (KRH buffer). Working solutions of test compounds are made by dissolving the material in DMSO at 10 mM and diluting with appropriate amounts of KRH buffer. An agonist solution is made containing 1 μM FMLP (sigma) and 10 units/ml of thrombin in KRH buffer (Enzyme Research Labs). […] The amount of LTB4 and TxB2 produced is determined by the use of a competitive enzyme immunoassay using commercial reagents from Cayman Chemical.
SMILES,CC50 (MCII cells) [µM],IC50 [1] [µM]
Oc1ccc(-c2cc3ccc(O)cc3s2)cc1 [Compound B],< 10,–
O=C(c1ccc(O)cc1)c1c(-c2ccc(O)cc2)sc2cc(O)ccc12 [Compound D],–,> 9.8
"O=C(c1ccc(-c2ccccc2)cc1)c1c(-c2ccc(O)cc2)sc2cc(O)ccc12 [Example 1, 6-hydroxyphenyl-2-(p-hydroxyphenyl)-(benzo(B)thien-3-yl)(p-phenyl)phenyl methanone]",> 10,–
"O=C(c1cccc2ccccc12)c1c(-c2ccc(O)cc2)sc2cc(O)ccc12 [Example 2, 6-hydroxyphenyl-2-(p-hydroxyphenyl)-(benzo(B)thien-3-yl) (α-napthyl)methanone]",> 10,–
"O=C(c1ccc2ccccc2c1)c1c(-c2ccc(O)cc2)sc2cc(O)ccc12 [Example 3, 6-hydroxyphenyl-2-(p-hydroxyphenyl)-(benzo(B)thien-3-yl)(β-napthyl)methanone]",> 10,–

# From US5514703A, “Benzothiophene compounds useful for inhibiting lipoxygenase” (Eli Lilly and Company, priority 1995, dated 1996)
